Laboratory results taken from US8809583B2, “Methods for producing isomers of muconic acid and muconate salts” (Amyris, Inc., priority 2010, dated 2014).

Assays:
Type in all cases: physicochemical
[1] = Isomerization of cis,cis-muconate to cis,trans-muconate in crude fermentation broth, monitored by 1H NMR and HPLC; details: for time until isomerization cis,cis to cis,trans is essentially complete: pH 4, 60° C.
Experimental: cis,cis-muconate produced from a renewable carbon source through biocatalytic conversion (e.g., according to the method of Examples 7 and 7A) was provided, and the fermentation culture including the cis,cis-muconate was warmed to 60° C. The warmed fermentation culture was adjusted to pH 4 by adding 2 N sulfuric acid over 0.5 h. The acidified culture was allowed to react for 3.5 h.
The reaction was monitored by ^1H NMR and HPLC equipped with the Prevail Organic Acid Column (150 mm×4.6 mm), to determine the endpoint of the reaction. […] In general, such isomerization reactions can be monitored to determine appropriate reaction parameters (e.g., time, temperature, pH, and the like).

[2] = Solvent extraction of slurry of cis,trans-muconic acid in M9 salts (simulated broth) acidified to pH 3.0, precipitate left in; details: 63.34 g/L incl. precipitate
Experimental: (§1) To individual 50 mL conical centrifuge tubes each containing 15 mL of the filtered broth were added 15 mL of each solvent listed in tables below. Each tube was agitated for two minutes and the organic and aqueous phases allowed to separate. The aqueous layer was separated from the solvent layer by pipette and placed into a new 50 mL conical tube. Both the aqueous and solvent phases of each extraction were analyzed for muconic acid using HPLC. A second extraction was performed on each of the separated aqueous layers using fresh solvent. Again the samples were agitated, allowed to settle and the aqueous and organic phases were separated and analyzed.
To test the ability of solvent extraction to recover cis,trans-muconic acid after acidification to sufficiently low levels that significant amounts of the cis,trans-muconic acid has precipitated, a solution of cis,trans-muconic acid in a solution of M9 salts was used to simulate a fermentation broth. 15 grams of cis,trans-muconic acid were added to 250 mL of M9 salts giving an approximate titer of 60 g/L. This was achieved by raising the pH to 7.0 using sodium hydroxide. The broth was then acidified with sulfuric acid to pH 3.0 causing the cis,trans-muconic acid to precipitate. The solid precipitate was left in the acidified mixture, and the entire slurry was extracted twice with solvent as described above.

[3] = Precipitation of cis,trans-muconate from clarified broth at different pH values
Description: Following isomerization (e.g., as in Example 8), broth containing cis,trans-muconic acid was cooled to approximately ambient temperature and the cells, cell debris and precipitated solids were removed from the culture broth by centrifugation. Alternatively, such solids can be removed by filtration (e.g., through a 100 kD SARTOCON® Slice cassette). The cell-free broth was then clarified by filtration (e.g., through a 10 kD SARTOCON® Slice cassette), to remove proteins. […]

[4] = Solubility of muconic acid isomers in organic solvents
[5] = Solvent extraction of cis,trans-muconic acid from acidified, filtered fermentation broth (HPLC of both phases); details: pH about 3
Experimental: Fermentation broth was obtained that had been isomerized to cis,trans-muconic acid, and was acidified to a pH of about 3. The solid cis,trans-muconic acid was removed by filtration to leave acidified fermentation broth containing approximately 5 to 10 grams per Liter of cis,trans-muconic acid.
as §1
Different broth samples with different amounts of cis,trans-muconic acid were used to generate the results in each table.

[6] = broth 4.86 g/L, cyclohexanone, first line (extraction number not given)
[7] = broth 4.86 g/L, cyclohexanone, second line (extraction number not given)
[8] = broth 4.86 g/L, ethyl hexanol, first line (extraction number not given)
[9] = broth 4.86 g/L, ethyl hexanol, second line (extraction number not given)
[10] = broth 4.86 g/L, isoalcohol, first line (extraction number not given)
[11] = broth 4.86 g/L, isoalcohol, second line (extraction number not given)
[12] = broth 4.86 g/L, xylene, first line (extraction number not given)
[13] = broth 4.86 g/L, xylene, second line (extraction number not given)
[14] = broth 9.82 g/L, 1-butanol, extraction 1
[15] = broth 9.82 g/L, 1-butanol, extraction 2
[16] = broth 9.82 g/L, Octanol, extraction 1
[17] = broth 9.82 g/L, Octanol, extraction 2
[18] = broth 9.82 g/L, tBME, extraction 1
[19] = broth 9.82 g/L, tBME, extraction 2
[20] = broth 10.69 g/L, 1-pentanol, extraction 1
[21] = broth 10.69 g/L, 1-pentanol, extraction 2
[22] = broth 10.69 g/L, MEK, extraction 1
[23] = broth 10.69 g/L, MEK, extraction 2
[24] = broth 10.69 g/L, MeTHF, extraction 1
[25] = broth 10.69 g/L, MeTHF, extraction 2
[26] = broth 10.69 g/L, cyclohexane, extraction 1
[27] = broth 10.69 g/L, cyclohexane, extraction 2
[28] = broth 10.69 g/L, cylcohexanol, extraction 1
[29] = broth 10.69 g/L, cylcohexanol, extraction 2
[30] = broth 10.69 g/L, decalin, extraction 1
[31] = broth 10.69 g/L, decalin, extraction 2
[32] = broth 10.69 g/L, n-butyl acetate, extraction 1
[33] = broth 10.69 g/L, n-butyl acetate, extraction 2

## O=C(O)/C=C\C=C/C(=O)O [cis,cis-muconate, cis,cis-muconic acid]
[1]; HPLC traces and time course
  time until isomerization cis,cis to cis,trans is essentially complete: about 1.25 hours
[1]; crude fermentation broth, 1H NMR
  time until isomerization cis,cis to cis,trans is essentially complete: about 1.25 hours
[1]; pH 7, HPLC traces and time course
  isomerization from cis,cis to cis,trans-muconic acid: essentially no isomerization
[1]; pH 7, crude fermentation broth, 0 to 3.25 hours, 1H NMR
  isomerization from cis,cis to cis,trans muconic acid: essentially no isomerization

## O=C(O)/C=C\C=C\C(=O)O [cis,trans-muconic acid]
[2]; MeTHF, extraction 1
  Muconic acid in aqueous phase: 2.03 g/L
  Muconic acid in organic phase: 47.10 g/L
  Partition coefficient: 23.20
[2]; MeTHF, extraction 2
  Muconic acid in aqueous phase: 0.11 g/L
  Muconic acid in organic phase: 1.64 g/L
  Partition coefficient: 14.91
[2]; cyclohexanol, extraction 1
  Muconic acid in aqueous phase: 10.53 g/L
  Muconic acid in organic phase: 51.37 g/L
  Partition coefficient: 4.88
[2]; cyclohexanol, extraction 2
  Muconic acid in aqueous phase: 2.71 g/L
  Muconic acid in organic phase: 3.75 g/L
  Partition coefficient: 1.38
[2]; cyclohexanone, extraction 1
  Muconic acid in aqueous phase: 2.92 g/L
  Muconic acid in organic phase: 51.05 g/L
  Partition coefficient: 17.48
[2]; cylcohexanone, extraction 2
  Muconic acid in aqueous phase: 0.20 g/L
  Muconic acid in organic phase: 2.10 g/L
  Partition coefficient: 10.50
[2]; tBME, extraction 1
  Muconic acid in aqueous phase: 54.00 g/L
  Muconic acid in organic phase: 0.00 g/L
  Partition coefficient: 0.00
[2]; tBME, extraction 2
  Muconic acid in aqueous phase: 59.88 g/L
  Muconic acid in organic phase: 0.00 g/L
  Partition coefficient: 0.00
[3]; pH 2.0
  % ctMA in filtrate: 18 weight %
[3]; pH 2.5
  % ctMA in filtrate: 18 weight %
  ctMA in precipitate: 64 weight %
[3]; pH 3.0
  % ctMA in filtrate: 22 weight %
  ctMA in precipitate: 61 weight %
[3]; pH 3, Table 2
  cis,trans-muconic acid originally in the solution that precipitates: about 60%
  cis,trans-muconic acid remaining in solution: approximately 40%
[3]; pH 3.5
  % ctMA in filtrate: 26 weight %
  ctMA in precipitate: 58 weight %
[3]; pH 4.0
  % ctMA in filtrate: 75 weight %
  ctMA in precipitate: 22 weight %
[3]; pH 4.7
  % ctMA in filtrate: 100 weight %
  ctMA in precipitate: 0 weight %
[4]
  solubility in organic solvents compared with the other isomers: more soluble in organic solvents than either of the cis,cis or trans,trans isomers
[5]; [6]
  Muconic acid in aqueous phase: 0.21 g/L
  Muconic acid in organic phase: 6.11 g/L
  Partition coefficient: 29.10
[5]; [7]
  Muconic acid in aqueous phase: 0.23 g/L
  Muconic acid in organic phase: 0.00 g/L
  Partition coefficient: large
[5]; [8]
  Muconic acid in aqueous phase: 0.89 g/L
  Muconic acid in organic phase: 3.83 g/L
  Partition coefficient: 4.30
[5]; [9]
  Muconic acid in aqueous phase: 0.20 g/L
  Muconic acid in organic phase: 0.79 g/L
  Partition coefficient: 3.95
[5]; [10]
  Muconic acid in aqueous phase: 0.63 g/L
  Muconic acid in organic phase: 4.87 g/L
  Partition coefficient: 7.73
[5]; [11]
  Muconic acid in aqueous phase: 0.04 g/L
  Muconic acid in organic phase: 0.49 g/L
  Partition coefficient: 12.25
[5]; [12]
  Muconic acid in aqueous phase: 5.15 g/L
  Muconic acid in organic phase: 0.00 g/L
  Partition coefficient: 0.00
[5]; [13]
  Muconic acid in aqueous phase: 4.82 g/L
  Muconic acid in organic phase: 0.00 g/L
  Partition coefficient: 0.00
[5]; [14]
  Muconic acid in aqueous phase: 1.10 g/L
  Muconic acid in organic phase: 6.26 g/L
  Partition coefficient: 5.69
[5]; [15]
  Muconic acid in aqueous phase: 0.27 g/L
  Muconic acid in organic phase: 0.51 g/L
  Partition coefficient: 1.89
[5]; [16]
  Muconic acid in aqueous phase: 2.19 g/L
  Muconic acid in organic phase: 5.40 g/L
  Partition coefficient: 2.47
[5]; [17]
  Muconic acid in aqueous phase: 1.52 g/L
  Muconic acid in organic phase: 0.53 g/L
  Partition coefficient: 0.35
[5]; [18]
  Muconic acid in aqueous phase: 2.05 g/L
  Muconic acid in organic phase: 6.53 g/L
  Partition coefficient: 3.19
[5]; [19]
  Muconic acid in aqueous phase: 0.72 g/L
  Muconic acid in organic phase: 1.23 g/L
  Partition coefficient: 1.71
[5]; [20]
  Muconic acid in aqueous phase: 1.29 g/L
  Muconic acid in organic phase: 8.29 g/L
  Partition coefficient: 6.43
[5]; [21]
  Muconic acid in aqueous phase: 0.30 g/L
  Muconic acid in organic phase: 1.06 g/L
  Partition coefficient: 3.53
[5]; [22]
  Muconic acid in aqueous phase: 2.63 g/L
  Muconic acid in organic phase: 9.65 g/L
  Partition coefficient: 3.67
[5]; [23]
  Muconic acid in aqueous phase: 0.84 g/L
  Muconic acid in organic phase: 1.99 g/L
  Partition coefficient: 2.37
[5]; [24]
  Muconic acid in aqueous phase: 0.65 g/L
  Muconic acid in organic phase: 7.40 g/L
  Partition coefficient: 11.38
[5]; [25]
  Muconic acid in aqueous phase: 0.00 g/L
  Muconic acid in organic phase: 0.51 g/L
  Partition coefficient: large
[5]; [26]
  Muconic acid in aqueous phase: 10.47 g/L
  Muconic acid in organic phase: 0.00 g/L
  Partition coefficient: 0.00
[5]; [27]
  Muconic acid in aqueous phase: 10.20 g/L
  Muconic acid in organic phase: 0.00 g/L
  Partition coefficient: 0.00
[5]; [28]
  Muconic acid in aqueous phase: 0.98 g/L
  Muconic acid in organic phase: 8.62 g/L
  Partition coefficient: 8.80
[5]; [29]
  Muconic acid in aqueous phase: 0.28 g/L
  Muconic acid in organic phase: 1.05 g/L
  Partition coefficient: 3.75
[5]; [30]
  Muconic acid in aqueous phase: 10.25 g/L
  Muconic acid in organic phase: 0.00 g/L
  Partition coefficient: 0.00
[5]; [31]
  Muconic acid in aqueous phase: 12.99 g/L
  Muconic acid in organic phase: 0.00 g/L
  Partition coefficient: 0.00
[5]; [32]
  Muconic acid in aqueous phase: 3.96 g/L
  Muconic acid in organic phase: 6.78 g/L
  Partition coefficient: 1.71
[5]; [33]
  Muconic acid in aqueous phase: 2.02 g/L
  Muconic acid in organic phase: 3.55 g/L
  Partition coefficient: 1.76
